Patent US20260335456A1, “ANTIBODY-DRUG CONJUGATE HAVING CAMPTOTHECIN-BASED DRUG LINKED TO ANTIBODY HAVING LOW ANTIGEN-BINDING AFFINITY THROUGH LINKER” (PINOTBIO, INC., priority 2022, published 2026)

Legend:
A549 cell line = experiment: Western blot of DDX5 and anti-apoptotic proteins in A549; assay type: cell-based; details: for DDX5 degradation ranking: FaDu and A549, 0, 10, 100 nM
FaDu cell line = experiment: Western blot of DDX5 and anti-apoptotic proteins in FaDu; assay type: cell-based; details: 0, 10, 100 nM; for DDX5 degradation ranking: FaDu and A549; for expression of anti-apoptotic proteins: Survivin, cIAP2, Mcl-1, XIAP, 24 hours
Protocol: 1-1: Confirmation of Suppressive Activity of Expression of Cancer-Related Survival Genes of DDX5, Survivin, Mcl-1, XIAP and cIAP2 Through Western Blot
200,000 FaDu cell lines were seeded per well in a 6-well plate and incubated at constant temperature (37 °C, 5% CO2). […] It was incubated at constant temperature (37 °C, 5% CO2) for 24 hours. The well was treated with 100 μL of RIPA buffer dissolved in protease inhibitor cocktail. […] Protein concentration was determined through protein assay.
Electrophoresis was performed on the gel at 60V.
7 sheets of activated filter paper, PVDF membrane, gel and 7 sheets of filter paper were placed in order in the cassettes of the Trans-Blot® Turbo™ Transfer System, and the lid was closed, and after being inserted into the machine, the protocol started.
The transferred membrane was immersed in blocking buffer and incubated at constant temperature (RT, 1h). Next, it was incubated at 4 °C overnight in primary antibody solution. It was rinsed with TBST buffer for 3 minutes (repeated 3 times). Incubation was performed (RT, 1h) in a secondary antibody solution conjugated with HRP. It was rinsed with TBST buffer for 3 minutes (repeated 3 times).
After soaking the membrane in the ECL substrate for 3 to 5 minutes, the signal was determined by using the ChemiDoc™ MP Imaging System.

DDX5 protein = DDX5 protein (Homo sapiens, UniProt P17844); experiment: DDX5 degradation by camptothecin drugs; assay type: cell-based; details: FIGS. 7 to 10
A549 = experiment: Cell viability assay in A549; assay type: cell-based; details: for efficacy / IC50 in ABCG2-overexpressing cells: A549, FIG. 9
Protocol: (§1) After 24 hours, 100 μL of the drug at 9 concentrations (serial dilution of 1/5 from 1,000 nM) was treated with the cells. […] In this case, a control group that was not treated with the drug (drug concentration 0) was also prepared. It was cultured at constant temperature (37 °C, 5% CO2) for 3 or 6 days. 100 μL of CellTiter-Glo reagent (using CellTiter-Glo® Luminescent Cell Viability Assay kit (Promega, G7571)) was added to each well and pipetted. After incubation at constant temperature (RT) for 10 minutes, luminescence was measured.

[1] = Lactone to carboxylate form conversion in pH 7.4; assay type: physicochemical; details: for rate of conversion from lactone to carboxylate form / degraded at 3 µM: pH 7.4, 37 °C; for degraded at 3 µM: PBS with 10% DMSO, read-out: carboxylate form formed; for lactone to carboxylate conversion versus reference compounds: pH 7.4, reference: exatecan, DXd, SN-38, FL118
Protocol: 3-2. Lactone to Carboxylate Form Conversion in pH 7.4
Afterwards, it was centrifuged at 4 °C, 2 minutes, and 13,000 RCF conditions, and the supernatant was used as a sample.
The column used was Cortecs C18 2.7 μm, 4.6×50 mm Column, and analysis was conducted under the following conditions. 1) 20 minutes: 5% B, 2) sample injection, 3) 2 minutes: 5% B, 4) 10 minutes: 5% B→50% B, 5) 1 minute: 50% B.
In order to measure changes over time, the sample chamber was maintained at 37 °C, and the sample was set to be injected every measurement time. The measurement times were 0, 20, 40, 60, 90, 120, 180, 240, 300, 360, 480, 600 and 720 minutes.
The content was calculated from the peak area of each lactone and carboxylate. Since the absorption coefficients of lactone and carboxylate are different, the lactone area was obtained by multiplying the carboxylate area by the equation below.

ABCG2 = molecular target: T1, ABCG2 (Homo sapiens, UniProt Q9UNQ0); experiment: Sensitivity to ABCG2 transporter; assay type: cell-based
T1 sequence (Q9UNQ0 1-655): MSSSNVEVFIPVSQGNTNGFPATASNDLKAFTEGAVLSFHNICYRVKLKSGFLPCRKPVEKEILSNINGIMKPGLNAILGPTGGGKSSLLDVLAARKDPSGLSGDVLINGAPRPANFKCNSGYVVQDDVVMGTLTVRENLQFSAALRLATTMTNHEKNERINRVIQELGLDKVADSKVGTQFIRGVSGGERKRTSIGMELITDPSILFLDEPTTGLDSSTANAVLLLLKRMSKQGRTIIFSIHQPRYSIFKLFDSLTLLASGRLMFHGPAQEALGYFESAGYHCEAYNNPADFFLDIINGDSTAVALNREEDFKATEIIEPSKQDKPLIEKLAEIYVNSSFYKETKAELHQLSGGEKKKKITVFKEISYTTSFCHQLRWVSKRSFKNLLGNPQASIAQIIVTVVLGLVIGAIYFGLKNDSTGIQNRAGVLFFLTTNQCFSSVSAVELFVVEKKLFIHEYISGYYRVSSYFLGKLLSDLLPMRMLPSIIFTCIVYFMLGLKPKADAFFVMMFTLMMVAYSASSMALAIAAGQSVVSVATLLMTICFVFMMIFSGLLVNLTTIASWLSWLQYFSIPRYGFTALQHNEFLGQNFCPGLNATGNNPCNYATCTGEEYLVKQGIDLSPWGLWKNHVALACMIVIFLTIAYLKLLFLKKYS

MDA-MB-468 tumor model = experiment: In vivo efficacy in MDA-MB-468 model (EGFR ADCs); set-up: species or system mouse
Protocol: Cells growing in exponential growth phase were harvested and counted for tumor inoculation.
MDA-MB-468 cells (1×10^7) in 0.2 mL of DPBS with Matrigel were inoculated subcutaneously into the right anterior flank of each mouse. When the average tumor volume reached approximately 215 mm^3, animals were randomly grouped, and then, treatment for drug efficacy studies was initiated.
During routine monitoring, normal behavior such as mobility, food and water consumption (observation only), body weight changes (weighed twice weekly), eye/hair mailing, tumor growth and effectiveness of treatment were checked in animals every day. Deaths and observed clinical signs were recorded based on the number of animals in each subset.
The primary endpoint was determined as a time point when tumor growth could be delayed or the mice could be cured. The two-dimensional size of the tumor was measured twice weekly using a caliper, and the volume was expressed in mm^3 using the equation (V=0.5 a×b^2, where a and b are the long and short diameters of the tumor, respectively).
Tumor growth inhibition (TGI) was calculated for each group.
TGI (%)=[1−(Ti/T0)/(Vi/V0)]×100 […]

FaDu = experiment: Cell viability assay in FaDu; assay type: cell-based
Protocol: as §1

Sequence of DDX5 protein (P17844 whole entry): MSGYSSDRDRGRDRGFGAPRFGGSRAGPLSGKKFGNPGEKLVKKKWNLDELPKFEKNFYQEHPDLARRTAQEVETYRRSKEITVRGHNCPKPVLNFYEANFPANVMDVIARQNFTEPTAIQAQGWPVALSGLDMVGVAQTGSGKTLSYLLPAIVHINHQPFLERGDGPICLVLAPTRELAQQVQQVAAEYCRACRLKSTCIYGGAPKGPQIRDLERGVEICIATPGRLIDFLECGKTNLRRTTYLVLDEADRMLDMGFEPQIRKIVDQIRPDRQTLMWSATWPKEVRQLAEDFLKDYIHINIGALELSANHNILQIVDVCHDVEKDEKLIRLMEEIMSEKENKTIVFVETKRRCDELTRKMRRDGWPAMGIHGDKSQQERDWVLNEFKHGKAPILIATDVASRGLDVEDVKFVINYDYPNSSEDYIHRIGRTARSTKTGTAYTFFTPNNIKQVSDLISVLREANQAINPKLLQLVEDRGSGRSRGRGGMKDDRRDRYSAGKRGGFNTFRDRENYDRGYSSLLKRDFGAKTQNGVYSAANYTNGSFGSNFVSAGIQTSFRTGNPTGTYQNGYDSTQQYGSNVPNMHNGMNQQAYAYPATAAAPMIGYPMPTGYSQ

Compound | DDX5 degradation ranking (A549 cell line) | DDX5 degradation ranking (FaDu cell line) | expression of anti-apoptotic proteins (FaDu cell line) | efficacy / IC50 in ABCG2-overexpressing cells (A549) | rate of conversion from lactone to carboxylate form [1] | degraded at 3 µM [1] | sensitivity to ABCG2 (ABCG2) | lactone to carboxylate conversion versus reference compounds [1] | further results
CC[C@@]1(O)C(=O)OCc2c1cc1n(c2=O)Cc2c-1nc1cc3c(c4c1c2[C@@H](N)CC4)OCO3 (single isomer, unassigned) [PBX-7011] | followed by 7011, 7016 and 7014 | followed by 7011, 7016 and 7014 | decrease in the expression of Survivin, cIAP2, Mcl-1 and XIAP as the concentration increased |  |  |  |  |  | 
CC[C@@]1(O)C(=O)OCc2c1cc1n(c2=O)Cc2c-1nc1cc(F)c(C)c3c1c2[C@@H](NC(=O)CO)CC3 [Dxd, reference compound] |  |  |  | increased IC50 values | 0.6 % per minute | 76.5% | strongly influenced by ABCG2 |  | DDX5 degradation mechanism of action (DDX5 protein): exerts a mechanism of action (MoA) to degrade DDX5 protein
Nimotuzumab-CL2A-FL118: nimotuzumab ADC with CL2A-FL118 (Example 4) |  |  |  |  |  |  |  |  | efficacy (MDA-MB-468 tumor model; 1 mpk, 5 mpk and 10 mpk, versus cetuximab-based ADC): better efficacy; in vivo efficacy versus Cetuximab-CL2A-FL118 (MDA-MB-468 tumor model; FIG. 22): better efficacy compared to Cetuximab-CL2A-FL118
CC[C@@]1(O)C(=O)OCc2c1cc1n(c2=O)Cc2c-1nc1cc3c(c4c1c2[C@@H](NC(=O)CO)CC4)OCO3 [PBX-7014] | followed by 7011, 7016 and 7014 | followed by 7011, 7016 and 7014 | decrease in the expression of Survivin, cIAP2, Mcl-1 and XIAP as the concentration increased |  | 0.8 % per minute | > 86% |  | faster and at a higher rate than other reference compounds | dual mechanism (topoisomerase I inhibition and DDX5 degradation) (A549 cell line): dual MoA that acts as a degrader of DDX5 (p68)
CC[C@@]1(O)C(=O)OCc2c1cc1n(c2=O)Cc2c-1nc1cc3c(c4c1c2[C@@H](NC(=O)[C@@H](O)C1CC1)CC4)OCO3 [PBX-7024] |  |  |  | still maintained strong efficacy |  |  | not affected by ABCG2 | faster and at a higher rate than other reference compounds | apoptosis effect (A549; A549, overexpresses ABCG2, 3 days): strong apoptosis effect; IC50 compared to Dxd (A549; FaDu and A549, 3 days, FIG. 9): IC50 of an equal or higher level compared to Dxd; IC50 compared to Dxd (FaDu; 3 days, FIG. 9): IC50 of an equal or higher level compared to Dxd; apoptosis effect (FaDu; does not express ABCG2, 3 days): strong apoptosis effect
